Marks after values point to notes of the source that are not given here.
Molecular target: CYP3A4 (Homo sapiens, UniProt P08684)
Assay: biochemical
Details: not given

Sequence of CYP3A4 (P08684 whole entry): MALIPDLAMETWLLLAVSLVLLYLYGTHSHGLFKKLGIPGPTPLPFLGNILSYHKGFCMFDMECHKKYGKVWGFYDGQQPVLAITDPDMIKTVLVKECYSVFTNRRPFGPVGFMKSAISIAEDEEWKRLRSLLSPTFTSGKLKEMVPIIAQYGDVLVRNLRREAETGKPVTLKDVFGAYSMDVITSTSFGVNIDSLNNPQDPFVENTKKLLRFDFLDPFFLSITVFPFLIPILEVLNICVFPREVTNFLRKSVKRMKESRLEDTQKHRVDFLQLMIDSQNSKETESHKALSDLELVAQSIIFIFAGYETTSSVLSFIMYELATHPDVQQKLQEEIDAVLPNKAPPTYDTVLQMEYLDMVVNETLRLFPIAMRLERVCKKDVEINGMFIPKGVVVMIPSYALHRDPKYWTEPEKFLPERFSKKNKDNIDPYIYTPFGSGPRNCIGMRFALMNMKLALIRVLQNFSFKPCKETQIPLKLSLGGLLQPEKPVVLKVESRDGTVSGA

| Structure (SMILES) | IC50 |
| --- | --- |
| CCOC(=O)CC(F)(F)C(=O)N1N=C(c2c(-c3ccc(Cl)cc3)c3ccccc3[nH]c2=O)CC1c1ccc(Cl)cc1 (stereo not drawn) [2l] | 7.8 ± 0.1 µM |
| CC(C)OC(=O)CC(F)(F)C(=O)N1N=C(c2c(-c3ccc(Cl)cc3)c3ccccc3[nH]c2=O)CC1c1ccc(Cl)cc1 (stereo not drawn) [2m] | 6.3 ± 1.1 µM |
| O=C(O)CCC(=O)N1N=C(c2c(-c3ccc(Cl)cc3)c3ccccc3[nH]c2=O)CC1c1ccc(Cl)cc1 (stereo not drawn) [2a] | 17 ± 3.4 µM |
| NC(=O)CC(F)(F)C(=O)N1N=C(c2c(-c3ccc(Cl)cc3)c3ccccc3[nH]c2=O)CC1c1ccc(Cl)cc1 (stereo not drawn) [2k] | 2 ± 0.4 µM |
| CNC(=O)CC(F)(F)C(=O)N1N=C(c2c(-c3ccc(Cl)cc3)c3ccccc3[nH]c2=O)CC1c1ccc(Cl)cc1 (stereo not drawn) [2q] | 7.7 ± 1.7 µM |

Molecular target: GluN1/GluN2C (Rattus norvegicus, UniProt Q00961)
Sequence (Q00961 20-1237, other chains not shown): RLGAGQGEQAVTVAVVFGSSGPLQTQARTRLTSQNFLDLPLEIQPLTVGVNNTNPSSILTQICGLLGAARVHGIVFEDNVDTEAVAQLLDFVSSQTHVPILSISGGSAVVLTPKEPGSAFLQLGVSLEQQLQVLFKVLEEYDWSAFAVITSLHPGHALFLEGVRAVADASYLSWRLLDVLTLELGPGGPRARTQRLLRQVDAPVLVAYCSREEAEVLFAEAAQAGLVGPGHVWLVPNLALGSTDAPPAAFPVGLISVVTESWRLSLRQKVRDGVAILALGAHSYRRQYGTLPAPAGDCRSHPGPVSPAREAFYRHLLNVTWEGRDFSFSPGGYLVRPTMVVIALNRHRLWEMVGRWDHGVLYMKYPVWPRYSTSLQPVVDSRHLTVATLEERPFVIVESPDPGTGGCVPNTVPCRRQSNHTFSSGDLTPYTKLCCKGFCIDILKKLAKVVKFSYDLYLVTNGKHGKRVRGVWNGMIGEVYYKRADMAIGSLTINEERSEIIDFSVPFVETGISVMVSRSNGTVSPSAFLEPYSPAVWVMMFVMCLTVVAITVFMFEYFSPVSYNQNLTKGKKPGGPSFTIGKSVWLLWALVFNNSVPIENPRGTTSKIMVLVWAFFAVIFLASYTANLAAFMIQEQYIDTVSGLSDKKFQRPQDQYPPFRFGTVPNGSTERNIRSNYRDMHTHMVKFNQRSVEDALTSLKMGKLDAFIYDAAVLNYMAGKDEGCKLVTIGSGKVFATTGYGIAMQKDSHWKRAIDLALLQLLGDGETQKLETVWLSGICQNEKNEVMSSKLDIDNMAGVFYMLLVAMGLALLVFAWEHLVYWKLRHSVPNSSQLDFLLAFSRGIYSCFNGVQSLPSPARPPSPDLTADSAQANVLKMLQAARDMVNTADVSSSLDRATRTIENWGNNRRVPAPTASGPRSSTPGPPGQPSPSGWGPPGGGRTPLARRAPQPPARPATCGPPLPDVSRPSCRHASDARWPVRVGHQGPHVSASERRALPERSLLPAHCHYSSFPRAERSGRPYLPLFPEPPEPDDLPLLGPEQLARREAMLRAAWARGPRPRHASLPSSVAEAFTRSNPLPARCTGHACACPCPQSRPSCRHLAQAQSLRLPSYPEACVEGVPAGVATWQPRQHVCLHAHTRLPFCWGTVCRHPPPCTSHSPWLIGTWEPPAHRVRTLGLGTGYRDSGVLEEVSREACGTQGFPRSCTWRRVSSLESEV
Assay: Two-electrode voltage-clamp recordings, Xenopus laevis oocytes, GluN1/GluN2C
Assay type: cell-based
Parameters: GluN2B (NM_012574.1), GluN2C (NM_012575.3), and GluN2D (NM_022797.2) were provided by; expressed in transfected cells; host or cells: Xenopus laevis oocytes (cRNA injection)
Details: 1 µM compound; 100 µM glutamate, 30 µM glycine; mean ± SEM
Procedure: (§1) All target compounds were evaluated for NMDAR antagonism using two-electrode voltage-clamp recordings from Xenopus laevis oocytes coexpressing recombinant GluN1 and GluN2A-D subunits (Table 1).[32],[42],[33] All analogues were assessed as either a racemic (2b, 2e–2r) or diastereomeric (2d) mixture to simplify purification and streamline in vitro analysis. […] Moreover, as illustrated by the significant loss of NMDAR activity observed with nitrile 2e, the DQP allosteric site necessitated an H-bond donor/acceptor relationship at the carboxylate position. […] The loss of NMDAR activity observed with the trifluoro analogue 2j (Table S1) reinforced the necessity for an H-bond donor/acceptor relationship to maintain allosteric binding and established that fluorine substitution alone is ineffective. […] A single methyl substitution of the amide in compound 2q improved selectivity against GluN2A and had similar potency as 2a, whereas dual methyl substitution reduced potency (2r). We expect that this is likely due to the ability of the […] of the amide to accept hydrogen bonds while the amide can readily donate a proton.
(§2) Unfertilized Xenopus laevis oocytes were obtained from Ecocyte (Austin, TX), or ovaries were purchased from Xenopus 1 (Dexter, MI) and oocytes prepared as previously described.[42],[47] Two-electrode voltage-clamp recordings were performed on oocytes expressing recombinant rat GluN1/GluN2A, GluN1/GluN2B, GluN1/GluN2C, or GluN1/GluN2D. cDNAs for rat GluN1-1a (referred to as GluN1; NCBI Reference Sequence NM_017010.2), GluN2A (NM_012573.4), GluN2B (NM_012574.1), GluN2C (NM_012575.3), and GluN2D (NM_022797.2) were provided by Dr. S. Heinemann from the Salk Institute, Dr. S. Nakanishi from Kyoto University, and Dr. P. Seeburg from the University of Heidelberg. Oocyte isolation, cRNA synthesis, and cRNA injections were performed as previously described.[32],[33],[47] Briefly, Xenopus laevis oocytes were injected with 5–10 ng of cRNA in RNase-free water with the GluN1:GluN2 ratio ranging from 1:1 to 1:5. Oocytes were incubated at 15–19 °C in Barth’s solution consisting of (in mM) 88 NaCl, 1 KCl, 2.4 NaHCO3, 10 HEPES, 0.82 MgSO4, 0.33 Ca(NO3)2, and 0.41 CaCl2 supplemented with 100 μg/mL gentamycin, 40 μg/mL streptomycin, and 50 μg/mL penicillin. Recordings were performed 2–4 days after injection with extracellular recording solution containing (in mM) 90 NaCl, 1 KCl, 10 HEPES, 0.5 BaCl2, and 0.01 EDTA at pH 7.4 adjusted with NaOH. To prevent a gradual increase in current response over the course of the experiment, some oocytes expressing GluN1/GluN2A were injected with 20–50 nL of 2–50 mM K-BAPTA. Concentration–response curves for test compounds were generated by applying a maximally effective concentration of glutamate (100 μM) and glycine (30 μM), followed by glutamate and glycine with variable concentrations of test compounds up to 30 μM. The test compounds were prepared as 20 mM stock solutions in DMSO and diluted to the final concentration in recording solution. The DMSO content was 0.05–0.5% (v/v). […] Methods for off-target analysis are given in the Supporting Information.
(§3) Confidence intervals were determined for the log(IC50). The time course of relaxation during inhibitor application or deactivation following rapid removal of NMDA or glutamate was fitted by the equation [drawing 5] 2

| Structure (SMILES) | % control GluN1/GluN2C |
| --- | --- |
| O=C(O)CC(F)(F)C(=O)N1N=C(c2c(-c3ccc(Cl)cc3)c3ccccc3[nH]c2=O)C[C@H]1c1ccc(Cl)cc1 [(S)-(−)-2i] | 16 ± 2.9% |

Same assay, conditions: abstract

| Structure (SMILES) | selectivity for GluN2C-containing NMDARs compared to GluN2A- and GluN2B-containing receptors |
| --- | --- |
| O=C(O)CC(F)(F)C(=O)N1N=C(c2c(-c3ccc(Cl)cc3)c3ccccc3[nH]c2=O)C[C@H]1c1ccc(Cl)cc1 [(S)-(−)-2i] | > 100 fold |

Same assay, conditions: tested at 3 μM; 100 μM glutamate, 30 μM glycine; mean ± SEM

| Structure (SMILES) | I3 μM/Icontrol GluN2C |
| --- | --- |
| O=C(O)CC(F)(F)C(=O)N1N=C(c2c(-c3ccc(Cl)cc3)c3ccccc3[nH]c2=O)C[C@H]1c1ccc(Cl)cc1 [(S)-(−)-2i] | 13 ± 2.6 (3, 16) % |
| NC(=O)CC(F)(F)C(=O)N1N=C(c2c(-c3ccc(Cl)cc3)c3ccccc3[nH]c2=O)CC1c1ccc(Cl)cc1 (stereo not drawn) [2k] | 22 ± 5.2 ^b (3,16) % |

Same assay, conditions: tested at 10 μM (footnote b); 100 μM glutamate, 30 μM glycine; mean ± SEM

| Structure (SMILES) | I / I control GluN2C |
| --- | --- |
| CNC(=O)CC(F)(F)C(=O)N1N=C(c2c(-c3ccc(Cl)cc3)c3ccccc3[nH]c2=O)CC1c1ccc(Cl)cc1 (stereo not drawn) [2q] | 16 ± 1.6 ^b (3, 20) % |

Molecular target: GluN1/GluN2C (Rattus norvegicus, UniProt P35439+Q00961)
Sequence (Q00961 20-1237, other chains not shown): as above
Assay: as above
Assay type: cell-based
Parameters: GluN2B (NM_012574.1), GluN2C (NM_012575.3), and GluN2D (NM_022797.2) were provided by; expressed in transfected cells; host or cells: Xenopus laevis oocytes (cRNA injection)
Details: 30 μM test compound; 100 μM glutamate, 30 μM glycine; mean ± SEM; read-out: I 30 μM / I control GluN2C
Procedure: as §1, §2, §3

| Structure (SMILES) | remaining activity at 30 µM |
| --- | --- |
| CCOC(=O)CC(F)(F)C(=O)N1N=C(c2c(-c3ccc(Cl)cc3)c3ccccc3[nH]c2=O)CC1c1ccc(Cl)cc1 (stereo not drawn) [2l] | 93 ± 0.7% |
| CC(C)OC(=O)CC(F)(F)C(=O)N1N=C(c2c(-c3ccc(Cl)cc3)c3ccccc3[nH]c2=O)CC1c1ccc(Cl)cc1 (stereo not drawn) [2m] | 90 ± 4.3% |

Same assay, conditions: 100 μM glutamate, 30 μM glycine; read-out: IC50 GluN2C [95% CI]

| Structure (SMILES) | IC50 |
| --- | --- |
| O=C(O)CC(F)(F)C(=O)N1N=C(c2c(-c3ccc(Cl)cc3)c3ccccc3[nH]c2=O)C[C@H]1c1ccc(Cl)cc1 [(S)-(−)-2i] | 0.061 µM |
| NC(=O)CC(F)(F)C(=O)N1N=C(c2c(-c3ccc(Cl)cc3)c3ccccc3[nH]c2=O)CC1c1ccc(Cl)cc1 (stereo not drawn) [2k] | 0.38 µM |
| CNC(=O)CC(F)(F)C(=O)N1N=C(c2c(-c3ccc(Cl)cc3)c3ccccc3[nH]c2=O)CC1c1ccc(Cl)cc1 (stereo not drawn) [2q] | 0.67 µM |

Molecular target: T1, GluN1/GluN2A (Rattus norvegicus, UniProt Q00959)
T1 construct: expressed in transfected cells; host or cells: Xenopus laevis oocytes (cRNA injection)
T1 sequence (Q00959 23-1464, other chains not shown): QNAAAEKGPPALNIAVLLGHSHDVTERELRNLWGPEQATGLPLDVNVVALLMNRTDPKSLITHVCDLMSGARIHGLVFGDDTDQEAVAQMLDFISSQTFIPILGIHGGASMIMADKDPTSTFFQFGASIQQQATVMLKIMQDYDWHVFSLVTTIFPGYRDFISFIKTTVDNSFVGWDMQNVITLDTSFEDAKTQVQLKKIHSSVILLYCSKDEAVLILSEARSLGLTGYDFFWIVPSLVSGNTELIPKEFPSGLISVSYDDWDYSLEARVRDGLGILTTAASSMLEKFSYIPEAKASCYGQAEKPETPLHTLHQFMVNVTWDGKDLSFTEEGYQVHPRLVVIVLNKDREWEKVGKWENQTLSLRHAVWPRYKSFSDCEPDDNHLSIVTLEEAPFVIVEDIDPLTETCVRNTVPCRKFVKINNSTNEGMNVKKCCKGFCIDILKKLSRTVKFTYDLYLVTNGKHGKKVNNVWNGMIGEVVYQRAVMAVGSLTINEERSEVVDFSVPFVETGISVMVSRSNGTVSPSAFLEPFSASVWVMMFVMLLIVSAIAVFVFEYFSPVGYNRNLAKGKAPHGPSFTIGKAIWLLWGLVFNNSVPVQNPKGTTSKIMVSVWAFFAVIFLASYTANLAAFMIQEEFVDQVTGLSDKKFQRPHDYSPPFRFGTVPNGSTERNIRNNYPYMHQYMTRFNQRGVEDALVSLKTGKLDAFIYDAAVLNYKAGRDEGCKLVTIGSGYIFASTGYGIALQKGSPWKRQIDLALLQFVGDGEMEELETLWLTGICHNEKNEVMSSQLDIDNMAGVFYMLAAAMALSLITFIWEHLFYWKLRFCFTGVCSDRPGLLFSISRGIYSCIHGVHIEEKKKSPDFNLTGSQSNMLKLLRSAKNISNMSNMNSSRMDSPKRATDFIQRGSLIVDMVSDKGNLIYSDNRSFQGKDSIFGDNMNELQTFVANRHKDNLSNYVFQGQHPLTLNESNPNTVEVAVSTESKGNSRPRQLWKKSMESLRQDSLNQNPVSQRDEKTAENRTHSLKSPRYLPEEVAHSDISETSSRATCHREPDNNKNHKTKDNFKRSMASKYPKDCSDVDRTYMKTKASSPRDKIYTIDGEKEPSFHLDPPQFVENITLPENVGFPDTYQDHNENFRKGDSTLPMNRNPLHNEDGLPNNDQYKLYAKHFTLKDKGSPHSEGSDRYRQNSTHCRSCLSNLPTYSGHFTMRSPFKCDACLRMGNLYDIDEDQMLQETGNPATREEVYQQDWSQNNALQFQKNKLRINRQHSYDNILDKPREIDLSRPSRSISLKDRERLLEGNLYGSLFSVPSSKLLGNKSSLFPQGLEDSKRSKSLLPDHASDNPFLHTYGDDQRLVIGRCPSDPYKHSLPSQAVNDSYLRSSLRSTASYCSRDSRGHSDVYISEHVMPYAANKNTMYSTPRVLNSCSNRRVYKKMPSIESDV
Assay: Two-electrode voltage-clamp recordings, Xenopus laevis oocytes, GluN1/GluN2A
Assay type: cell-based
Details: 1 µM compound; 100 µM glutamate, 30 µM glycine; mean ± SEM
Procedure: as §1, §2, §3

| Structure (SMILES) | % control GluN1/GluN2A |
| --- | --- |
| O=C(O)CC(F)(F)C(=O)N1N=C(c2c(-c3ccc(Cl)cc3)c3ccccc3[nH]c2=O)C[C@H]1c1ccc(Cl)cc1 [(S)-(−)-2i] | 74 ± 2.1% |

Same assay, conditions: tested at 3 μM; 100 μM glutamate, 30 μM glycine; mean ± SEM

| Structure (SMILES) | I3 μM/Icontrol GluN2A |
| --- | --- |
| O=C(O)CC(F)(F)C(=O)N1N=C(c2c(-c3ccc(Cl)cc3)c3ccccc3[nH]c2=O)C[C@H]1c1ccc(Cl)cc1 [(S)-(−)-2i] | 67 ± 2.0 (3, 14) % |
| NC(=O)CC(F)(F)C(=O)N1N=C(c2c(-c3ccc(Cl)cc3)c3ccccc3[nH]c2=O)CC1c1ccc(Cl)cc1 (stereo not drawn) [2k] | 35 ± 6.5 ^b (3,9) % |

Same assay, conditions: tested at 10 μM (footnote b); 100 μM glutamate, 30 μM glycine; mean ± SEM

| Structure (SMILES) | I / I control GluN2A |
| --- | --- |
| CNC(=O)CC(F)(F)C(=O)N1N=C(c2c(-c3ccc(Cl)cc3)c3ccccc3[nH]c2=O)CC1c1ccc(Cl)cc1 (stereo not drawn) [2q] | 83 ± 3.9 ^b (2,12) % |

Molecular target: T2, GluN1/GluN2A (Rattus norvegicus, UniProt P35439+Q00959)
T2 construct: expressed in transfected cells; host or cells: Xenopus laevis oocytes (cRNA injection)
T2 sequence (Q00959 23-1464, other chains not shown): as above
Assay: as above
Assay type: cell-based
Details: 30 μM test compound; 100 μM glutamate, 30 μM glycine; mean ± SEM; read-out: I 30 μM / I control GluN2A
Procedure: as §1, §2, §3

| Structure (SMILES) | remaining activity at 30 µM |
| --- | --- |
| CCOC(=O)CC(F)(F)C(=O)N1N=C(c2c(-c3ccc(Cl)cc3)c3ccccc3[nH]c2=O)CC1c1ccc(Cl)cc1 (stereo not drawn) [2l] | 100 ± 3.2% |
| CC(C)OC(=O)CC(F)(F)C(=O)N1N=C(c2c(-c3ccc(Cl)cc3)c3ccccc3[nH]c2=O)CC1c1ccc(Cl)cc1 (stereo not drawn) [2m] | 97 ± 2.3% |

Same assay, conditions: 100 μM glutamate, 30 μM glycine; read-out: IC50 GluN2A [95% CI]

| Structure (SMILES) | IC50 |
| --- | --- |
| O=C(O)CC(F)(F)C(=O)N1N=C(c2c(-c3ccc(Cl)cc3)c3ccccc3[nH]c2=O)C[C@H]1c1ccc(Cl)cc1 [(S)-(−)-2i] | 4.7 µM |
| NC(=O)CC(F)(F)C(=O)N1N=C(c2c(-c3ccc(Cl)cc3)c3ccccc3[nH]c2=O)CC1c1ccc(Cl)cc1 (stereo not drawn) [2k] | 5.8 µM |
| CNC(=O)CC(F)(F)C(=O)N1N=C(c2c(-c3ccc(Cl)cc3)c3ccccc3[nH]c2=O)CC1c1ccc(Cl)cc1 (stereo not drawn) [2q] | 37 µM |

Source: publication PMC10485906, “Development of a Dihydroquinoline–Pyrazoline GluN2C/2D-Selective Negative Allosteric Modulator of the N-Methyl-D-aspartate Receptor” (ACS Chemical Neuroscience, 2023)
